Results on 17 compounds are retold here after US7507860B2 (Pfizer Inc., priority 2004, dated 2009).

One experiment concerns the target T1, androgen receptor (Homo sapiens, UniProt P10275).
T1 sequence (P10275 1-920 Q868H): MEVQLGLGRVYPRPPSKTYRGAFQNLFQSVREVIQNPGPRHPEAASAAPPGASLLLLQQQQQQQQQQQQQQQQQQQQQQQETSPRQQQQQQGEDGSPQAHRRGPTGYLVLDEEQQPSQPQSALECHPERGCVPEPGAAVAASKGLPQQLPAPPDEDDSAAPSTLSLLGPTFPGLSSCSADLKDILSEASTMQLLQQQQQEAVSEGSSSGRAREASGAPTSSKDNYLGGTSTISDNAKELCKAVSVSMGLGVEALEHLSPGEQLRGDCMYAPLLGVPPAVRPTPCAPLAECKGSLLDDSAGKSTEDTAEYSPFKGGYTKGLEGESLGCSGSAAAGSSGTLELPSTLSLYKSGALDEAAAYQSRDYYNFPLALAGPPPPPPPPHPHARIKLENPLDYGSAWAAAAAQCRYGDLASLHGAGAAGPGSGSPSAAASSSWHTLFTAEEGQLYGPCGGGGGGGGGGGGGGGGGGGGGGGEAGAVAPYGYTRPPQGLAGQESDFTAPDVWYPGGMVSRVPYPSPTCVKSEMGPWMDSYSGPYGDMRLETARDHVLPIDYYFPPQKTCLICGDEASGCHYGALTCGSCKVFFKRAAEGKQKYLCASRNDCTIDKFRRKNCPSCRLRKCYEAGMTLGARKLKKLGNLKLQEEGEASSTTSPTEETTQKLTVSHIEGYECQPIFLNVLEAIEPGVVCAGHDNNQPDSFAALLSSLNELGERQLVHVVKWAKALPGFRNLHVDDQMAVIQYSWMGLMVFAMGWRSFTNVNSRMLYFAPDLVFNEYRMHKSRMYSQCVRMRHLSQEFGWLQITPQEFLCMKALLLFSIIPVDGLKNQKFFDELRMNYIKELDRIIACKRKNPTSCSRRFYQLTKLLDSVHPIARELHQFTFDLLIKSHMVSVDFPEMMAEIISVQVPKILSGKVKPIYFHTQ
As to the kind of experiment: AR antagonist cell assay (MDA-MB453-MMTV clone 54-19 luciferase reporter, 100 pM DHT). The format is cell-based. As for the experimental part:
The compounds ability to antagonize the effects of androgen on the androgen receptor were determined in a whole cell assay as described immediately below.
Experimental Procedure for AR Antagonist Cell Assay
This cell line is a stable transfected cell line with MDA-MB453 cell background (a human breast tumor cell line expressing androgen receptor). A MMTV minimal promoter containing ARE was first cloned in front of a firefly luciferase reporter gene. Then the cascade was cloned into transfection vector pUV120puro. […] Puromycin resistant stable cell line was selected. Cell Culture Media and Reagents:
Plating medium: DMEM (phenol red free), 10% charcoal treated HyClone serum, 1% L-glutamine
Assay medium: DMEM (phenol red free), 1% charcoal treated HyClone serum, 1% L-glutamine, and 1% penicillin/streptomycin
• 1. Cells are maintained in culture medium, splitting cells when they reach 80-90% confluence • 2. To test compounds, 10,000 cells/well are plated to opaque 96 cell culture plate in 100 ul/well plating medium, culture for overnight at 37° C. in cell culture incubator • 3. […] Add 10 ul/well freshly prepared DHT (final concentration at 100 pM) to each well, incubate at 37° C. for 17 hr (overnight) • 5.
The results are reported as the mean of multiple tests as described below (the numbers of tests are indicated in the footnote). N.D. denotes that the compound was not tested.
On the technique in general: Reporter assays use an easily measured gene product as a stand-in for the process of interest.

Experiment [1] concerns the target T2, human androgen receptor (hAR) (Homo sapiens, UniProt P10275).
T2 construct: made in house; host or cells: baculovirus/Sf9 insect cells (crude extract)
T2 sequence (P10275 1-920): T1 sequence (P10275 1-920 Q868H) with H868Q
As to the kind of experiment: Competitive binding analysis on baculovirus/Sf9 generated hAR extracts with 3H-DHT tracer. As to conditions: hAR extract, 1 nM 3H-DHT, one hour at 4° C; mean of multiple tests; read-out: AR Binding IC50. As for the experimental part: The compounds of Formula I have affinity for the androgen receptor. […] The description below describes how the assay was carried out.
Competitive binding analysis was performed on baculovirus/Sf9 generated hAR extracts in the presence or absence of different concentrations of test agent and a fixed concentration of ^3H-dihydrotestosterone (^3H-DHT) as tracer. This binding assay method is a modification of a protocol previously described (Liao S., et. al. J. Steroid Biochem. 20:11-17 1984). Briefly, progressively decreasing concentrations of compounds are incubated in the presence of hAR extract (Chang et al. P.N.A.S. Vol. 89, pp. […], 1992), hydroxylapatite, and 1 nM^3H-DHT for one hour at 4° C. Subsequently, the binding reactions are washed three times to completely remove excess unbound ^3H-DHT. hAR bound ^3H-DHT levels are determined in the presence of compounds (=i.e competitive binding) and compared to levels bound when no competitor is present (=i.e. maximum binding). Compound binding affinity to the hAR is expressed as the concentration of compound at which one half of the maximum binding is inhibited. Table II below provides the results that were obtained for selected compounds (reported data is the mean of multiple tests as shown below)

[2] abbreviates: MDA-MB453-MMTV clone 54-19, inhibition of 100 pM DHT induction, 17 hr; mean of multiple tests; read-out: AR Cell IC50.

Substitutions are numbered along the chain they refer to. Read-outs that look alike come from different tables or passages of the source.

The term IC50 denotes the point on the concentration scale where inhibition reaches its midpoint.

As to `CC(C)CC(Oc1ccc(C#N)c(C(F)(F)F)c1)C(=O)NCC(C)Oc1ccccc1` (stereo not shown) [Example 53, 2-(4-Cyano-3-trifluoromethyl-phenoxy)-4-methyl-pentanoic acid-(2-phenoxypropyl)-amide], the IC50 was 299 nM at androgen receptor (setting [2]) and 59 nM in experiment [1].
Regarding `CCCC(Oc1ccc(C#N)c(Cl)c1)C(=O)NCCc1c[nH]c2ccccc12` (stereo not shown) [Example 101, 2-(3-Chloro-4-cyano-phenoxy)-pentanoic acid [2-(1H-indol-3-yl)-ethyl]-amide], the IC50 on androgen receptor (setting [2]) was found to be 38 nM; in experiment [1], 53 nM.
For `CCN(CCOC)C(=O)C(CC(C)C)Oc1ccc(C#N)c(C(F)(F)F)c1` (stereo not shown) [Example 86, 2-(4-Cyano-3-trifluoromethyl-phenoxy)-4-methyl-pentanoic acid ethyl(2-methoxyethyl)-amide], the IC50 at androgen receptor (setting [2]) is over 1000 nM; in experiment [1] it was 25 nM.
With `COc1ccccc1CNC(=O)C(CC(C)C)Oc1ccc(C#N)c(C(F)(F)F)c1` (stereo not shown) [Example 35, 2-(4-Cyano-3-trifluoromethyl-phenoxy)-4-methyl-pentanoic acid-2-methoxy-benzylamide], the values for the IC50 (on androgen receptor (setting [2]); in experiment [1]) were 768 nM and 77 nM, respectively.
In the same order, the values of `Cc1ccc(NC(=O)C(CC(C)C)Oc2ccc(C#N)c(C(F)(F)F)c2)cc1O` (stereo not shown) [Example 78, 2-(4-Cyano-3-trifluoromethyl-phenoxy)-4-methyl-pentanoic acid (3-hydroxy-4-methyl-phenyl)-amide] are 948 nM and 121 nM.
Consider `CCCC(Oc1ccc(C#N)c(C(F)(F)F)c1)C(=O)NCC` (stereo not shown) [Example 5, 2-(4-Cyano-3-trifluoromethyl-phenoxy)-pentanoic acid ethylamide], for which the IC50 is over 1000 nM at androgen receptor (setting [2]) and 277 nM in experiment [1].
The corresponding values for `Cc1cccc(CNC(=O)C(CC(C)C)Oc2ccc(C#N)c(C(F)(F)F)c2)c1` (stereo not shown) [Example 37, 2-(4-Cyano-3-trifluoromethyl-phenoxy)-4-methyl-pentanoic acid-3-methyl-benzylamide] are over 1000 nM and 41 nM.
The corresponding values for `CCCC(Oc1ccc(C#N)c(C(F)(F)F)c1)C(=O)NCc1ccc2nsnc2c1` (stereo not shown) [Example 31, 2-(4-Cyano-3-trifluoromethyl-phenoxy)-pentanoic acid (benzo[1,2,5]thiadiazo-5-yl-methyl)-amide] are over 1000 nM and 83 nM.
Turning to `CCC[C@H](Oc1ccc(C#N)c(Cl)c1)C(=O)NCCc1ccc(O)cc1` [Example 105, (S)-2-(3-Chloro-4-cyano-phenoxy)-pentanoic acid [2-(4-hydroxy-phenyl)ethyl]amide], the IC50 turned out to be 88 nM at androgen receptor (read-out: AR Cell IC50; MDA-MB453-MMTV clone 54-19, inhibition of 100 pM DHT induction, 17 hr; mean of multiple tests) and 241 nM in experiment [1].
As for `CCOc1ccccc1CNC(=O)C(CC(C)C)Oc1ccc(C#N)c(C(F)(F)F)c1` (stereo not shown) [Example 36, 2-(4-Cyano-3-trifluoromethyl-phenoxy)-4-methyl-pentanoic acid-2-ethoxy-benzylamide], the IC50 at androgen receptor (setting [2]) was over 1000 nM; in experiment [1], 42 nM.
In the same order, the values of `COc1ccc(CCNC(=O)C(CC(C)C)Oc2ccc(C#N)c(C(F)(F)F)c2)cc1` (stereo not shown) [Example 9, 2-(4-Cyano-3-trifluoromethyl-phenoxy)-4-methyl-pentanoic acid [2-(4-methoxyphenyl)-ethyl]-amide] are over 1000 nM and 163 nM.
In the same order, the values of `CCCC(Oc1ccc(C#N)c(C(F)(F)F)c1)C(=O)N[C@@H](C)c1ccc(O)cc1` (stereo in doubt) [Example 118, 2-(4-Cyano-3-trifluoromethyl-phenoxy)-pentanoic acid [1-(4-hydroxy-phenyl)-ethyl]-amide] are 589 nM and 1010 nM.
Turning to `CSCCNC(=O)C(CC(C)C)Oc1ccc(C#N)c(C(F)(F)F)c1` (stereo not shown) [Example 83, 2-(4-Cyano-3-trifluoromethyl-phenoxy)-4-methyl-pentanoic acid (2-methylsulfanyl-ethyl)-amide], the IC50 at androgen receptor (setting [2]) is over 1000 nM; in experiment [1] it was 85 nM.
Take `CC(C)CC(Oc1ccc(C#N)c(C(F)(F)F)c1)C(=O)N(CCO)C(C)C` (stereo not shown) [Example 79, 2-(4-Cyano-3-trifluoromethyl-phenoxy)-4-methyl-pentanoic acid (2-hydroxy-ethyl)isopropyl-amide]: the values for the IC50 (on androgen receptor (setting [2]); in experiment [1]) were over 1000 nM and 3130 nM, respectively.
For `CC(C)CC(Oc1ccc(C#N)c(C(F)(F)F)c1)C(=O)NCCc1c[nH]c2ccccc12` (stereo not shown) [Example 59, 2-(4-Cyano-3-trifluoromethyl-phenoxy)-4-methyl-pentanoic acid [2-(1H-indol-3-yl)ethyl]amide], the IC50 on androgen receptor (setting [2]) stood at 101 nM; in experiment [1], 48 nM.
The corresponding values for `CCCC(Oc1ccc(C#N)c(C(F)(F)F)c1)C(=O)N[C@H](C)c1ccc(OC)cc1` (stereo in doubt) [Example 123, 2-(4-Cyano-3-trifluoromethyl-phenoxy)-pentanoic acid [1-(4-methoxy-phenyl)-ethyl]-amide] are 681 nM and 653 nM.
On to `CCCC(Oc1ccc(C#N)c(C(F)(F)F)c1)C(=O)NC(C)Cc1ccsc1` (stereo not shown) [Example 18, 2-(4-Cyano-3-trifluoromethyl-phenoxy)-pentanoic acid (1-methyl-2-thiophen-3-ylethyl)-amide], for which the IC50 on androgen receptor (setting [2]) was determined as 815 nM; in experiment [1] it was 222 nM.
